Test results: patent US6358883B1, “Pesticidal and parasiticidal use of 1-aryl-1-(substituted thio, sulfinyl and sulfonyl)-2-nitroethane compounds” (American Cyanamid Company, priority 1998, dated 2002)

Legend:
Format in all cases: in vivo
[1] = tested on: M. incognita (Root Knot Nematode) larvae; test: Evaluation of test compounds against M. incognita larvae in microtiter plate wells (movement score); conditions: larvae scored for movement after 20-24 hours; note: key: A score of '9' indicates inactive worms with a straight, sticklike morphology; A score of '8' indicates inactive worms with a limp, curled or curved morphology; A score of '7' indicates dead/paralyzed worms after 72 hours
Summary of the method: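 Newly emerged M. incognita larvae in S Medium (buffered salt solution), 50-65 worms per well, exposed to test compounds in sealed microtiter wells. Movement scored after 20-24 h incubation; wells with obviously dead/paralyzed larvae scored positive. A score of "7" denotes dead/paralyzed worms after […].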

[2] = tested on: Spodoptera eridania, 2nd instar larvae, southern armyworm (SAW); test: Southern armyworm (SAW) leaf dip test; set-up: key: 0 = no effect; 1 = 10-25% kill; 2 = 26-35% kill; 3 = 36-45% kill; 4 = 46-55% kill; 5 = 56-65% kill; 6 = 66-75% kill; 7 = 76-85% kill; 8 = 86-99% kill; 9 = 100% kill
Summary of the method: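 Compound is dissolved at 10,000 ppm in 35% acetone/water, then diluted with water. Lima bean leaves are dipped for 3 seconds, dried and placed with ten 2nd instar larvae on damp filter paper. Mortality, reduced feeding and molting interference are scored at 5 days.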

[3] = tested on: C. elegans (Bristol strain); test: Evaluation of test compounds against C. elegans (motility, 96-well plate); set-up: key: 9=complete kill in 4 hours; 8=complete kill in 24 hours; 7=markedly reduced motility in approximately 95% of worms in 24 hours; 0=normal motility, same as controls; conditions: motility at 4 and 24 hours
Summary of the method: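 Bristol-strain C. elegans in Na buffer added to wells containing dried compound (applied in 80% acetone) and incubated at 20 °C. Motility of adults and larvae scored subjectively but semi-quantitatively under a dissecting microscope at 4 and 24 h after immersion, plates tapped before reading.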

[4] = tested on: Diabrotica undecimpunctata howardi, eggs-southern corn rootworm (SCR-Eggs); test: Southern corn rootworm eggs (SCR-Eggs) treated diet test; set-up: key: 0 = no effect; 1 = 10-25% kill; 2 = 26-35% kill; 3 = 36-45% kill; 4 = 46-55% kill; 5 = 56-65% kill; 6 = 66-75% kill; 7 = 76-85% kill; 8 = 86-99% kill; 9 = 100% kill; conditions: mortality after 7 days
Summary of the method: (§1)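 Compounds dissolved at 10,000 ppm in 35% acetone/water, diluted with water, applied to artificial diet in wells and dried. Southern corn rootworm or southern armyworm eggs placed on treated diet under vented covers; mortality counted after 7 days.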

[5] = tested on: Tetranychus urticae (OP-resistant strain), 2-spotted spider mite (TSM); test: 2-spotted spider mite (TSM) plant dip test; set-up: key: 0 = no effect; 1 = 10-25% kill; 2 = 26-35% kill; 3 = 36-45% kill; 4 = 46-55% kill; 5 = 56-65% kill; 6 = 66-75% kill; 7 = 76-85% kill; 8 = 86-99% kill; 9 = 100% kill; conditions: mortality after 2 days
Summary of the method: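 OP-resistant mites (~100 per leaf) were transferred onto Sieva lima bean primary leaves about 2 h before treatment. Infested plants were dipped for 3 s in compound from a 10,000 ppm stock in 35% acetone/water, diluted with water. Mortality was counted after 2 days.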

[6] = tested on: Aphis gossypii, cotton aphid (CA); test: Cotton aphid (CA) cotyledon dip test; set-up: key: 0 = no effect; 1 = 10-25% kill; 2 = 26-35% kill; 3 = 36-45% kill; 4 = 46-55% kill; 5 = 56-65% kill; 6 = 66-75% kill; 7 = 76-85% kill; 8 = 86-99% kill; 9 = 100% kill; conditions: mortality after 5 days
Summary of the method: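 Cotyledon-stage cotton plants infested overnight via a heavily infested leaf, then dipped in test solution (compound in 35% acetone/water, diluted with water) and dried. Mortality counted after 5 days.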

[7] = tested on: Diabrotica virgifera virgifera Leconte, 2nd instar western corn rootworm (WCR); test: Western corn rootworm (WCR) soil test; set-up: key: 0 = no effect; 1 = 10-25% kill; 2 = 26-35% kill; 3 = 36-45% kill; 4 = 46-55% kill; 5 = 56-65% kill; 6 = 66-75% kill; 7 = 76-85% kill; 8 = 86-99% kill; 9 = 100% kill
Summary of the method: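 Compound in 35% acetone/water applied to talc at 1.25 mg active ingredient per jar (about 50 kg/ha), solvent evaporated, then mixed with millet seed and moist soil. Ten 2nd-instar larvae per jar; mortality counted after 5 days, missing larvae scored dead.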

[8] = tested on: Spodoptera eridania, eggs-southern armyworm (SAW-Eggs); test: Southern armyworm eggs (SAW-Eggs) treated diet test; set-up: key: 0 = no effect; 1 = 10-25% kill; 2 = 26-35% kill; 3 = 36-45% kill; 4 = 46-55% kill; 5 = 56-65% kill; 6 = 66-75% kill; 7 = 76-85% kill; 8 = 86-99% kill; 9 = 100% kill; conditions: mortality after 7 days
Summary of the method: as §1

O=C(CSC(C[N+](=O)[O-])c1ccc2ccccc2c1)OCc1ccccc1 (racemic) [Example 114]
M. incognita (150 ppm) score [1]: 0
SAW (300 ppm) rating [2]: 0
Rating Against C. elegans (150 ppm) [3]: 9
SCR Eggs (1000 ppm) rating [4]: 0
TSM (300 ppm) rating [5]: 3 (3 = 36-45% kill)
CA (300 ppm) rating [6]: 0
WCR (50 ppm) rating [7]: 0
SAW Eggs (300 ppm) rating [8]: 9 (9 = 100% kill)

CC(C)CCCCCOC(=O)CSC(C[N+](=O)[O-])c1ccc2c(c1)OCO2 (centres unmarked) [Example 21]
M. incognita (150 ppm) score [1]: 8
SAW (300 ppm) rating [2]: 0
Rating Against C. elegans (150 ppm) [3]: 0
SCR Eggs (1000 ppm) rating [4]: 0
TSM (300 ppm) rating [5]: 0
CA (300 ppm) rating [6]: 7 (7 = 76-85% kill)
WCR (50 ppm) rating [7]: 0
SAW Eggs (300 ppm) rating [8]: 0

O=[N+]([O-])CC(SCc1ccccc1)c1c(Cl)cccc1Cl (centres unmarked) [Example 137]
M. incognita (150 ppm) score [1]: 0
SAW (300 ppm) rating [2]: 0
Rating Against C. elegans (150 ppm) [3]: 0
SCR Eggs (1000 ppm) rating [4]: 9 (9 = 100% kill)
TSM (300 ppm) rating [5]: 0
CA (300 ppm) rating [6]: 0
WCR (50 ppm) rating [7]: 0
SAW Eggs (300 ppm) rating [8]: 9 (9 = 100% kill)

C=CCSC(C[N+](=O)[O-])c1ccc2ccccc2c1 (centres unmarked) [Example 125]
M. incognita (150 ppm) score [1]: 0
SAW (300 ppm) rating [2]: 0
Rating Against C. elegans (150 ppm) [3]: 0
SCR Eggs (1000 ppm) rating [4]: 0
TSM (300 ppm) rating [5]: 0
CA (300 ppm) rating [6]: 0
WCR (50 ppm) rating [7]: 0
SAW Eggs (300 ppm) rating [8]: 0

O=C(CSC(C[N+](=O)[O-])c1ccc2c(c1)OCO2)OCc1ccccc1 (racemic) [Example 106]
M. incognita (150 ppm) score [1]: 0
SAW (300 ppm) rating [2]: 0
Rating Against C. elegans (150 ppm) [3]: 8
SCR Eggs (1000 ppm) rating [4]: 0
TSM (300 ppm) rating [5]: 0
CA (300 ppm) rating [6]: 0
WCR (50 ppm) rating [7]: 0
SAW Eggs (300 ppm) rating [8]: 0

O=C(O)CSC(C[N+](=O)[O-])c1ccc2ccccc2c1 (racemic) [Example 109]
M. incognita (150 ppm) score [1]: 0
SAW (300 ppm) rating [2]: 0
Rating Against C. elegans (150 ppm) [3]: 9
SCR Eggs (1000 ppm) rating [4]: 0
TSM (300 ppm) rating [5]: 0
CA (300 ppm) rating [6]: 0
WCR (50 ppm) rating [7]: 0
SAW Eggs (300 ppm) rating [8]: 0

CCCOC(=O)CSC(C[N+](=O)[O-])c1ccc2ccccc2c1 (racemic) [Example 112]
M. incognita (150 ppm) score [1]: 0
SAW (300 ppm) rating [2]: 0
Rating Against C. elegans (150 ppm) [3]: 9
SCR Eggs (1000 ppm) rating [4]: 0
TSM (300 ppm) rating [5]: 0
CA (300 ppm) rating [6]: 0
WCR (50 ppm) rating [7]: 0
SAW Eggs (300 ppm) rating [8]: 8 (8 = 86-99% kill)

CCCOC(=O)CSC(C[N+](=O)[O-])c1ccccc1 (racemic) [Example 105]
M. incognita (150 ppm) score [1]: 0
SAW (300 ppm) rating [2]: 3 (3 = 36-45% kill)
Rating Against C. elegans (150 ppm) [3]: 9
SCR Eggs (1000 ppm) rating [4]: 0
TSM (300 ppm) rating [5]: 0
CA (300 ppm) rating [6]: 0
WCR (50 ppm) rating [7]: 3 (3 = 36-45% kill)
SAW Eggs (300 ppm) rating [8]: 0

CCOC(=O)CSC(C[N+](=O)[O-])c1ccc2ccccc2c1 (racemic) [Example 111]
M. incognita (150 ppm) score [1]: 0
SAW (300 ppm) rating [2]: 0
Rating Against C. elegans (150 ppm) [3]: 8
SCR Eggs (1000 ppm) rating [4]: 0
TSM (300 ppm) rating [5]: 0
CA (300 ppm) rating [6]: 0
WCR (50 ppm) rating [7]: 0
SAW Eggs (300 ppm) rating [8]: 8 (8 = 86-99% kill)

CCCCC(CC)COC(=O)CSC(C[N+](=O)[O-])c1ccc2c(c1)OCO2 (centres unmarked) [Example 22]
M. incognita (150 ppm) score [1]: 0
SAW (300 ppm) rating [2]: 0
Rating Against C. elegans (150 ppm) [3]: 0
SCR Eggs (1000 ppm) rating [4]: 0
TSM (300 ppm) rating [5]: 0
CA (300 ppm) rating [6]: 0
WCR (50 ppm) rating [7]: 0
SAW Eggs (300 ppm) rating [8]: 0

CCCSC(C[N+](=O)[O-])c1ccc2ccccc2c1 (racemic) [Example 115]
M. incognita (150 ppm) score [1]: 0
SAW (300 ppm) rating [2]: 0
Rating Against C. elegans (150 ppm) [3]: 0
SCR Eggs (1000 ppm) rating [4]: 0
TSM (300 ppm) rating [5]: 0
CA (300 ppm) rating [6]: 0
WCR (50 ppm) rating [7]: 0
SAW Eggs (300 ppm) rating [8]: 8 (8 = 86-99% kill)

O=C(CSC(C[N+](=O)[O-])c1ccc(OC(F)(F)F)cc1)OCc1ccccc1 (racemic) [Example 121]
M. incognita (150 ppm) score [1]: 8
SAW (300 ppm) rating [2]: 0
Rating Against C. elegans (150 ppm) [3]: 9
SCR Eggs (1000 ppm) rating [4]: 0
TSM (300 ppm) rating [5]: 0
CA (300 ppm) rating [6]: 0
WCR (50 ppm) rating [7]: 0
SAW Eggs (300 ppm) rating [8]: 0

COC(=O)CSC(C[N+](=O)[O-])c1ccc(OC)cc1 (centres unmarked) [Example 47]
M. incognita (150 ppm) score [1]: 9
SAW (300 ppm) rating [2]: 0
Rating Against C. elegans (150 ppm) [3]: 9
SCR Eggs (1000 ppm) rating [4]: 0
TSM (300 ppm) rating [5]: 4 (4 = 46-55% kill)
CA (300 ppm) rating [6]: 0
WCR (50 ppm) rating [7]: 4 (4 = 46-55% kill)
SAW Eggs (300 ppm) rating [8]: 0

O=C(O)CSC(C[N+](=O)[O-])c1cccc([N+](=O)[O-])c1 (centres unmarked) [Example 128]
M. incognita (150 ppm) score [1]: 9
SAW (300 ppm) rating [2]: 0
Rating Against C. elegans (150 ppm) [3]: 9
SCR Eggs (1000 ppm) rating [4]: 0
TSM (300 ppm) rating [5]: 0
CA (300 ppm) rating [6]: 0
WCR (50 ppm) rating [7]: 0
SAW Eggs (300 ppm) rating [8]: 0

CCCCOC(=O)CSC(C[N+](=O)[O-])c1cccnc1 (centres unmarked) [Example 173]
M. incognita (150 ppm) score [1]: 9
SAW (300 ppm) rating [2]: 0
Rating Against C. elegans (150 ppm) [3]: 8
SCR Eggs (1000 ppm) rating [4]: 0
TSM (300 ppm) rating [5]: 0
CA (300 ppm) rating [6]: 0
WCR (50 ppm) rating [7]: 0
SAW Eggs (300 ppm) rating [8]: 0

CCOC(=O)CSC(C[N+](=O)[O-])c1ccc(C)cc1 (centres unmarked) [Example 5]
M. incognita (150 ppm) score [1]: 9
SAW (300 ppm) rating [2]: 0
Rating Against C. elegans (150 ppm) [3]: 9
SCR Eggs (1000 ppm) rating [4]: 0
TSM (300 ppm) rating [5]: 0
CA (300 ppm) rating [6]: 0
WCR (50 ppm) rating [7]: 4 (4 = 46-55% kill)
SAW Eggs (300 ppm) rating [8]: 0

CCCSC(C[N+](=O)[O-])c1cccnc1 (centres unmarked) [Example 175]
M. incognita (150 ppm) score [1]: 9
SAW (300 ppm) rating [2]: 0
Rating Against C. elegans (150 ppm) [3]: 0
SCR Eggs (1000 ppm) rating [4]: 0
TSM (300 ppm) rating [5]: 0
CA (300 ppm) rating [6]: 0
WCR (50 ppm) rating [7]: 0
SAW Eggs (300 ppm) rating [8]: 0

O=[N+]([O-])CC(SCc1ccccc1)c1ccc2c(c1)OCO2 (centres unmarked) [Example 23]
M. incognita (150 ppm) score [1]: 8
SAW (300 ppm) rating [2]: 8 (8 = 86-99% kill)
Rating Against C. elegans (150 ppm) [3]: 7
SCR Eggs (1000 ppm) rating [4]: 9 (9 = 100% kill)
TSM (300 ppm) rating [5]: 0
CA (300 ppm) rating [6]: 4 (4 = 46-55% kill)
WCR (50 ppm) rating [7]: 4 (4 = 46-55% kill)
SAW Eggs (300 ppm) rating [8]: 9 (9 = 100% kill)

CCCSC(C[N+](=O)[O-])c1ccc2c(c1)OCO2 (centres unmarked) [Example 24]
M. incognita (150 ppm) score [1]: 9
SAW (300 ppm) rating [2]: 0
Rating Against C. elegans (150 ppm) [3]: 8
SCR Eggs (1000 ppm) rating [4]: 0
TSM (300 ppm) rating [5]: 0
CA (300 ppm) rating [6]: 0
WCR (50 ppm) rating [7]: 0
SAW Eggs (300 ppm) rating [8]: 0
